Laboratory results published in US7024311B1, “COMPUTER-AIDED METHOD FOR THE PROVISION, IDENTIFICATION AND DESCRIPTION OF MOLECULES CAPABLE OF EXHIBITING A DESIRED BEHAVIOR, MORE PARTICULARLY IN THE PHARMACEUTICAL SECTOR, AND MOLECULES OBTAINED BY SAID METHOD” (Synt:EM S.A., priority 1997, dated 2006).
“And” between values parts separate entries of the source, which are not always exact repeats. Equal entries are not always repeated. Marks after values point to notes of the source that are not given here.

Tests used:
[1] = test system: CBA mouse recipients of C57B1/6 donor hearts; test: heart-allograft survival in mice (abdominal heterotopic heart transplantation); format: in vivo; conditions: for MSTSD / mean graft survival time: CBA recipients of C57B1/6 donor hearts, peptide intraperitoneal daily from day of transplantation until day nine
Protocol: Abdominal heterotopic heart transplantation was carried out as described previously in J. Thorac. Cardiovasc. Surg., vol. 7, page 225 (1969).
CBA mouse recipients of C57B1/6 donor hearts were treated daily with different doses of peptide following organ transplantation. Peptides were dissolved in DMSO and diluted in PBS (final DMSO concentration 10%) before intraperitoneal administration. Animals were treated from the day of transplantation until day nine. Graft survival was monitored daily by direct palpation, and rejection was defined as termination of palpable cardiac contractility. The statistical significance of prolongation of heart allograft survival was calculated using the Mann-Whitney test.

[2] = test system: CBA mouse recipients of C57B1/6 donor hearts; conditions: cited from earlier work

Substance	MSTSD ([1]; dose not printed in table)	further results
ENLRIALR [shortened peptide derived from 2702.75-84]	8.5 0.7 (12)	
NLRIALRYYW [peptide derived from peptide 2702.75-84]		mean graft survival time ([1]; dose not printed in table): 11.6 days
REDLRTLLRY	7.7 1.2 (11)	
RENLRIALRY [peptide derived from HLA-B2702, amino acids 75 to 84, reference compound]	11.4 2.6 (1)* and 11.4 4.1 (1)	heart-allograft survival ([2]; 80 mg/kg/day for 10 days following transplantation of B6 donor hearts into CBA recipients, n=8, p<0.01 vs untreated): 11.4 days; heart-allograft survival in mice ([2]; Transplantation, vol. 59, page 455 (1995)): prolongs heart-allograft survival in mice; effect on graft survival at lower doses ([2]; doses lower than 80 mg/kg/day): No effect on graft survival was observed; allograft survival, reference peptide ([1]; 80 mg/kg/day): prolonged allograft survival; effect at lower doses, reference peptide ([1]; doses lower than 80 mg/kg/day): no effect was observed; long-term graft survival ([1]; reference peptide administration): no long-term graft survival was induced
RESLRLLRGY	7.5 0.7 (10)	
RMNLQTLRGY	7.5 0.7 (15)	
RVDKRTLLGY	7.8 1.0 (8)	
RVDLRTLLRY	7.0 0.5 (7)	
RVNLRIALRY [peptide derived from peptide 2702.75-84]	11.5 0.5 (3)	mean graft survival time ([1]; dose not given): 13.1 days
RVNLRTALRY		mean graft survival time ([1]; dose not printed in table): 8.5 days
RVNLRTLRRY	8.0 0.5 (14)	
RVSLRNLLGY	8.0 0.5 (9)	
YRLAIRLNER	12.1 2.8 (2)	MSTSD ([1]; dose not printed in table, listed as yrlairlner): 13.2 2.7 (2)
YRLAIRLNVR		mean graft survival time ([1]; dose not printed in table): 12.5 days; mean graft survival time ([1]; dose not printed in table, listed as yrlairlnvr): 12.2 days
renlpialry	9.5 2.4 (13)	
